Activity calls are given as the source filed them. No cut-off for these calls is given here.
Tests used:
[1] = target: T1, Oxytocin receptor (Rattus norvegicus) (UniProt P70536); test: Agonist activity in rat uterus by uterotonic assay; assay type: functional, tissue-based
T1 sequence (whole entry): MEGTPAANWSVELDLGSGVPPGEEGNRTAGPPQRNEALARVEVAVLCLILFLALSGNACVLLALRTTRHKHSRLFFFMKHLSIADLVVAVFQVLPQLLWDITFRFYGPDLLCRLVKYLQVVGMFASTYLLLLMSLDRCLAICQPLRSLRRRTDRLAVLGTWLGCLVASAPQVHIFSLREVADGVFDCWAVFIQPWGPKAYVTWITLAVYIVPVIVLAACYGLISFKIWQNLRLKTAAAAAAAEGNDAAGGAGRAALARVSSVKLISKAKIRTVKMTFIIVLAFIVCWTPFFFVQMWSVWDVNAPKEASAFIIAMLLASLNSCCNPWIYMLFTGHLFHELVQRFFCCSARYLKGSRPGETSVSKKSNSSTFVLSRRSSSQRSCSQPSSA

[2] = target: Vasopressin V1a receptor (Rattus norvegicus) (UniProt P30560); test: Agonist activity in phenoxybenzamine-treated rat up to 0.16 mg/kg by Pressor assay
Oxytocin receptor [3] = target: T2, Oxytocin receptor (Rattus norvegicus, UniProt P70536); test: Antagonist activity in rat uterus by uterotonic assay; assay type: functional, tissue-based; conditions: read-out: pA2 (converted)
T2 sequence (P70536 whole entry): T1 sequence (whole entry)

Oxytocin receptor [4] = target: T3, Oxytocin receptor (Homo sapiens, UniProt P30559); test: Displacement of [3H]OT from human OT receptor expressed in HEK cells; assay type: cell-based, HEK293
T3 sequence (P30559 whole entry): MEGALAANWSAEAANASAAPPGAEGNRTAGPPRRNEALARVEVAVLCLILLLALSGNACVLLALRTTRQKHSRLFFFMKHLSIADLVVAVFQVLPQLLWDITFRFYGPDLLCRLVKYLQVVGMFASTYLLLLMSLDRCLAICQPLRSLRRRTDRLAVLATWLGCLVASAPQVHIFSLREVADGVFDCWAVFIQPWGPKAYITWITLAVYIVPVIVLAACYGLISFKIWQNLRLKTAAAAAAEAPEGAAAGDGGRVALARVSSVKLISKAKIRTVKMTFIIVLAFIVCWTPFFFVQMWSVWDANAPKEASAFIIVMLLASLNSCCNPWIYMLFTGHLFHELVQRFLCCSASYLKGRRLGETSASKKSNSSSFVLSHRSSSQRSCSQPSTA

[5] = target: Vasopressin V1a receptor (Rattus norvegicus) (UniProt P30560); test: Antagonist activity in phenoxybenzamine-treated rat by Pressor assay; conditions: read-out: pA2 (converted)

Chain of Vasopressin V1a receptor (Rattus norvegicus) (P30560 whole entry, looked up): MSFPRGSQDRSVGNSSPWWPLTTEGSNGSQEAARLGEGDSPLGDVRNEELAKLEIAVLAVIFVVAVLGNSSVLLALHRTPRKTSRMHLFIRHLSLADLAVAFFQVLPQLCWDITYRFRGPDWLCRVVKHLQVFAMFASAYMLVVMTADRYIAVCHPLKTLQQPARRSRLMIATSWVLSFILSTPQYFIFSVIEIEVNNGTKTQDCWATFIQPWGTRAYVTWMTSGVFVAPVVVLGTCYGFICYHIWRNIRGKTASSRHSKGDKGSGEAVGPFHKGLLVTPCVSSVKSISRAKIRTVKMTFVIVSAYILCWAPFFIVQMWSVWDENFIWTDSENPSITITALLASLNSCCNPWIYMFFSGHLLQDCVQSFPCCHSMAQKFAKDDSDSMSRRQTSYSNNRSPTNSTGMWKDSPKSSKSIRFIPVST

SMILES | Activity [1] | Activity [2] | Kb (Oxytocin receptor [3]) | IC50 (Oxytocin receptor [4]) | Kb [5]
CCOc1ccc(CC2NC(=O)CCSSC[C@@H](C(=O)N3Cc4ccccc4C[C@@H]3C(=O)N[C@@H](CC(C)C)C(=O)NCC(N)=O)NC(=O)[C@H](CC(N)=O)NC(=O)[C@H](CCC(N)=O)NC(=O)[C@H]([C@@H](C)CC)NC2=O)cc1 (stereo in doubt) | 0 IU/mg | inactive | 6.31 nM | 51 nM | > 1000 nM
CC[C@H](C)[C@@H]1NC(=O)[C@H](Cc2ccc(O)cc2)NC(=O)[C@@H](N)CSSC[C@@H](C(=O)N2Cc3ccccc3C[C@@H]2C(=O)N[C@@H](CC(C)C)C(=O)NCC(N)=O)NC(=O)[C@H](CC(N)=O)NC(=O)[C@H](CCC(N)=O)NC1=O | 0 IU/mg | inactive | 100 nM | 730 nM | > 1000 nM
CC[C@H](C)[C@@H]1NC(=O)[C@H](Cc2ccc(O)cc2)NC(=O)CCSSC[C@@H](C(=O)N2Cc3ccccc3C[C@H]2C(=O)N[C@@H](CC(C)C)C(=O)NCC(N)=O)NC(=O)[C@H](CC(N)=O)NC(=O)[C@H](CCC(N)=O)NC1=O | 3.5 IU/mg | inactive | 35.5 nM | 103 nM | > 1000 nM

From ChEMBL document CHEMBL1147207 (Eur J Med Chem, 2007)
